Measured values: patent US20160243198A1, “Pharmaceutical Composition for Preventing or Treating Osteoporosis Which Comprises Neuropeptide Y as Active Ingredient” (KYUNGPOOK NATIONAL UNIVERSITY INDUSTRY-ACADEMIC COOPERATION …, priority 2013, published 2016)
Entries after “also recorded” stand apart in the source; their conditions may differ.

Assays:
S1P receptor = conditions: administered so as to reduce the number of the osteoclasts in the bone marrow; cited from earlier work
[1] = test system: haematopoietic stem cell adhesion factors (Sdf-1a, Kit1, Angpt1, IL7, Vcam1, and Spp1) present in the osteoblasts; experiment: Expression of haematopoietic stem cell adhesion factors in osteoblasts treated with neuropeptide Y (real-time quantitative PCR); format: cell-based, C57BL/6 mice; conditions: neuropeptide Y 0, 1, and 5 nM for 3 days; compared to untreated osteoblasts (control); p<0.05, n=3
Procedure: (§1) Neuropeptide Y, a Y1 agonist, and a Y1 antagonist were purchased from Bache, and used. To perform an in vitro experiment, 1 nM NPY, and 5 nM NPY were diluted with a medium, and injected. For the in vivo experiment, a total of 15 mice (three mice in each group) were also anesthetized with a mixed solution of 100 mg/kg ketamine and 10 mg/kg xylazine, and 50 μg/kg of either neuropeptide Y, Y1 agonist, or Y1 antagonist, and 100 μl of PBS (Gibco) were injected through the tail veins of the mice.
Four- to six-week-old C57BL/6 mice were anesthetized, and sacrificed, and their tibias and femurs were incised. […]
(§2) To measure expression levels of haematopoietic stem cell adhesion factors (Sdf-1a, Kit1, Angpt1, IL7, Vcam1, and Spp1) present in the osteoblasts, a real-time quantitative polymerase chain reaction (PCR) method was used.
(§3) A total of RNAs were extracted from a cell lysate and bone marrow cells using an RNeasy Plus Mini kit (Qiagen, Korea, Ltd), and cDNA was synthesized from a total of 5 μg of RNA using a kit commercially available from Clontech (Mountain View, Calif.). Also, real-time quantitative PCR, which included denaturation at 95° C. for 10 minutes; and 40 cycles with one cycle consisting of denaturation at 95° C. for 10 seconds, annealing at 58° C. for 15 seconds, and extension at 72° C. for 20 seconds, was performed using a Corbett research RG-6000 real-time PCR machine. […]

[2] = test system: bone-marrow haematopoietic stem cell adhesion factors; experiment: Expression of bone-marrow haematopoietic stem cell adhesion factors in bone marrow after tail-vein injection (real-time quantitative PCR); format: in vivo, mice; conditions: 50 μg/kg through the tail veins; bone marrow taken after 60 minutes; p<0.05, n=3
Procedure: as §1, §2, §3

[3] = test system: bone-marrow hematopoietic progenitor cells in blood; experiment: Colony-forming cell (CFC) assay of blood after tail-vein injection; format: in vivo, mice; conditions: 50 μg/kg tail vein; after 60 minutes of injection (of 15 minutes, 60 minutes, 12 hours)
Procedure: as §1
A colony-forming cell (CFC) assay was performed to measure the number of bone-marrow hematopoietic progenitor cells in blood from mice.
First, the mice were anesthetized, and 500 μl to 700 μl of blood was drawn from the hearts of the mice, and collected in a heparin tube. Thereafter, the collected blood was added to an ammonium chloride solution (Stem Cell Technologies, Inc. 1:10), and kept in ice for 15 minutes to remove red blood cells. The blood was shaken at intervals of 2 to 3 minutes to sufficiently remove the red blood cells, and centrifuged at 1,000 rpm for 7 minutes. […] Then, colonies formed on the flask were counted. […]
To examine an effect of the activation of the neuropeptide Y receptor on the release of the bone marrow precursor cells into the blood, the colony number of the bone marrow precursor cells was also counted using a CFC assay as described in Example 1-4. […]

[4] = test system: bone-marrow haematopoietic stem cells; experiment: Flow cytometry analysis (FAC) of bone-marrow haematopoietic stem cells; format: in vivo, mice; conditions: 50 μg/kg; bone marrow after 60 minutes; compared to PBS; p<0.05, n=3
Procedure: To determine whether there is a change in the number of the bone-marrow haematopoietic stem cells present in the bone marrows from the mice, NPY and PBS were injected to normal mice. After 60 minutes, the bone marrows were collected, and analyzed by flow cytometry analysis (FAC) using five antibodies Lineage, Sca-1, c-kit, CD48, and CD150, which were markers for the bone-marrow haematopoietic stem cells.
To analyze the bone-marrow haematopoietic stem cells, the bone marrows collected from the tibias and femurs of 4- to 6-week-old C57BL/6 mice was added in an ammonium chloride solution (Stem Cell Technologies, Inc. 1:4) to remove red blood cells. Thereafter, the red blood cells were washed with a PBS (Gibco) solution supplemented with 10% fetal bovine serum (FBS, Gibco) and 1% sodium azide (Sigma-Aldrich), and then centrifuged at 300×g for 10 minutes. Hemoblasts included in the bone marrow were removed with MAC beads (MiltenyiBiotec) using a biotinylated lineage antibody (MiltenyiBiotec), and the remaining cells were reacted with Sca-1-PECY7, c-kit-APC, CD150-PE, CD48-FITC (BD Science) antibodies at 4° C. for 30 minutes, and then analyzed using an LSRII (BD Science) flow cytometer.
First, normal mice were divided into two groups (three mice in each group), and 50 μg/kg of neuropeptide Y and 100 μl of PBS (Gibco) were administered to the mice. […]

[5] = test system: bone-marrow haematopoietic stem cells and bone-marrow hematopoietic progenitor cells; experiment: Competitive transplantation assay; format: in vivo, mice
Procedure: As an experimental method capable of determining the migration of bone-marrow haematopoietic stem cells and bone-marrow hematopoietic progenitor cells present in the bone marrows of the mice into blood, a competitive transplantation assay were performed.
(§4) A mixture of bone marrow cells (2×10^6) of Ly5.2 (C57BL/6) donor mice and bone marrow cells (2×10^6) of Ly5.1 (BoyJ) mice was injected to recipient mice whose whole bodies were exposed to 10 Gy irradiations (2×5 Gy) through the tail veins thereof. On the week 8 of transplantation of the bone marrow cells, blood was drawn from the recipient mice, and analyzed by an LSR II (BD science) flow cytometer using CD45.1-PE (BD Science), and CD45.2-FITC (BD Science) antibodies. Repopulating units (RU) are indicated using a calculation method represented by the following Equation 1.
Repopulating unit (RU)=(20×CD45.2%)/(100−CD45.2%) [Equation 1]
as §4, with “([…])” for “(2×10^6)”, “Repopulating units (RU) are indicated using a calculation method represented by the following Equation 1.” left out

osteoporosis model = experiment: Osteoporosis model (ovariotomy) and control model, micro-CT of femurs; format: in vivo, C57BL/6 female mice; conditions: for entire bone density in micro-CT images: compared to PBS
Procedure: Also, a total 6 female mice (three mice in each group), 12 weeks old, were subjected to an ovariotomy to establish an osteoporosis model. After a week, 50 μg/kg of neuropeptide Y and 100 μl of PBS (Gibco) were abdominally administered twice a day to the female mice at an interval of 12 hours for 3 weeks. As the control, a total 6 female mice (three mice in each group) were subjected to […] to establish a Sham model for osteoporosis. In this case, 100 μl of PBS or 50 μg/kg of neuropeptide Y was abdominally administered. […] To measure a bone density (bone volume/total volume) and a trabecular thickness, volume fractions with 2.5×0.5×0.5 mm^3 in the same portions of the femurs in each group were measured using Siemens Inveon software. First, three C57BL/6 female mice in each group, 12 weeks old, were subjected to an ovariotomy to establish an osteoporosis model. After a week, 50 μg/kg of neuropeptide Y and 100 μl of PBS (Gibco) were abdominally administered twice a day to the female mice at an interval of 12 hours for 3 weeks. As the control, the normal mice which were subjected to subcutaneous incision alone and into which 100 μl of PBS and 50 μg/kg of neuropeptide Y were abdominally administered were used. On the 22nd day, the femurs of the mice were isolated, and refrigerated in 80% ethanol, and the bone density and the trabecular thickness were then measured using micro CT.

[6] = osteoporotic (OVX) mice, 50 μg/kg abdominally twice a day for 3 weeks, versus PBS, n=3

Row | Molecule | bone formation (S1P receptor) | expression levels of Sdf-1a, Kit1, and Angpt1 in osteoblasts [1] | expression levels of the adhesion factors Sdf-1a, Kit1, Angpt1, and Vcam1 in bone marrow [2] | colony number of the bone-marrow hematopoietic progenitor cells released into the blood [3] | bone-marrow haematopoietic stem cells labeled with Lin−, Sca-1+, c-kit+, CD48−, and CD150+ in the bone marrow [4] | number of the haematopoietic stem cells (CD45.2+ cells) in the bone marrows of injected mice ([5]; compared to bone marrows of mice into which PBS was injected) | ratio of the CD45.2+ cells ([5]; donor bone marrow of injected mice mixed with Ly5.1 bone marrow, recipient blood 8 weeks after transplantation, compared to PBS) | entire bone density in micro-CT images (osteoporosis model; control (Sham) model, 50 μg/kg abdominally) | decrease in bone density and trabecular thickness of the osteoporotic mice (osteoporosis model; long-term administration in the osteoporosis model) | entire bone density in micro-CT images (osteoporosis model; osteoporotic (OVX) mice, 50 μg/kg abdominally twice a day for 3 weeks) | bone density (BV/TV, %) (osteoporosis model; [6]) | trabecular thickness (mm) (osteoporosis model; [6])
1 | CCCCCCCCc1ccc(CCC(N)(CO)CO)cc1 [FTY720] | increases | – | – | – | – | – | – | – | – | – | – | –
2 | CCCCCCCCCCCCC/C=C/[C@@H](O)[C@@H](N)COP(=O)(O)O [sphingosine-1-phosphate] | increases | – | – | – | – | – | – | – | – | – | – | –
3 | neuropeptide Y | – | decreased in a ration-dependent manner | decreased; also recorded: generally reduced | largest colony number | decreased in the bone marrow | lower | reduced | higher entire bone density; also recorded: increased | inhibited | higher entire bone density; also recorded: remarkably increased | higher | higher
